Consider three molecules from patent US20150190416A1, “FILAGGRIN PRODUCTION PROMOTER, THERAPEUTIC AGENT FOR DISEASES ASSOCIATED WITH REDUCTION IN PRODUCTION OF FILAGGRIN, AND METHOD FOR SCREENING FOR SAID THERAPEUTIC AGENT” (KYOTO UNIVERSITY, priority 2012, published 2015).

One test relates to GPR142. As to the kind of experiment: Action on adenylate cyclase activity (cAMP) in GPR142-overexpressing HEK293T cells (Examples 8 and 9). As to conditions: forskolin 10 μM, IBMX 1 mM. The class given is cell-based, human. The protocol:
In this example, the cAMP production-suppressing effect of Compound 1 was confirmed.
1) 6×10^4 cells/well of HEK293T cells were plated on a collagen-coated 24-well plate, a culture medium containing DMEM medium (Invitrogen) supplemented with penicillin (50 μg/ml), streptomycin (50 μg/ml), and fetal bovine serum (FBS) (10%, v/v) was added to the plate, and the cells were cultured under the conditions of 37° C. and 5% CO2.
2) A GPR142PCXN mammalian expression vector was prepared in the same manner as in the step 2) of Example 7.
3) After culture for 1 day under the conditions of the step 1), HEK293T cells were transfected with 0.2 μg of the GPR142PCXN mammalian expression vector per well by using a transfection reagent Fugene™ HD (Promega Corporation) according to the manufacturer's protocol. As a control, cells transfected only with the PCXN mammalian expression vector were used.
4) After culture for 1 day after the transfection described above, 1 mM of isobutylmethylxanthine (IBMX), which was a cAMP phosphodiesterase inhibitory substance, was added to HEK293T cells, and thereafter, the cells were cultured for 10 minutes at 37° C.
5) Next, the medium was exchanged for the culture medium to which 0.1 nM to 1000 nM of a DMSO solution of Compound 1, 10 μM of forskolin, and 1 mM of IBMX per well were added, and the cells were further cultured for 20 minutes at 37° C. As a control, a solvent (vehicle), 10 μM of forskolin, and 1 mM of IBMX were added.
6) The cells cultured in the step 5) were lysed by 0.1 mol/L of HCl. The cAMP concentration within the cells was measured by using Cyclic AMP EIA Kit (Cayman Chemical Company) according to the manufacturer's protocol. The result is shown as the ratio (%) of the cAMP concentration in the cells treated with Compound 1 with respect to the cAMP concentration in the control example defined as 100%.
In this example, the cAMP production-suppressing effect of Compound 2 or 3 was confirmed.
HEK293T cells were cultured in the same manner as in the steps 1) to 4) of Example 8. Next, the cells were cultured in the same manner as in the step 5) of Example 8 except that, in the step 5) of Example 8, each of a methanol solution of Compound 3, a DMSO solution of Compound 2, and a DMSO solution of Comparative Compound 2 was used at 1,000 nM per well instead of Compound 1. The cAMP concentration in the cultured cells was measured in the same manner as in the step 6) of Example 8.

The subject of a further test is FLG mRNA. As to the kind of experiment: FLG mRNA in three-dimensional cultured skin, real-time PCR (Example 10). As to conditions: human skin three-dimensional model, 1 μM, recovered 7 days after start of culture. In kind it is cell-based. The protocol:
In this example, the expression-increasing effect of Compound 1 on FLG mRNA was examined by using three-dimensional cultured skin. FLG mRNA expression was measured by a real-time PCR method.
1) A commercially available human skin three-dimensional model (TEST SKIN™ LSE-013, TOYOBO CO., LTD.) was cultured by using TEST SKIN LSE ASSAY MEDIUM (TOYOBO CO., LTD.) according to the manufacturer's protocol.
2) After culture for 2 days, the following medicament A) or C) was dissolved in DMSO, and was added to the medium at 1 μM to treat the cells with the medicament. • A) Compound 1 (N-quinolylbenzamide derivative) • C) Comparative Compound 2 (scriptaid)
As a control example, a solvent only (vehicle) was added.
3) After further culture for 2 days (4 days after the start of culture), the medium was exchanged for the medium to which the medicament was added. 3 days after further culture (7 days after the start of culture), the three-dimensional cultured skin was recovered, frozen with liquid nitrogen, and then stored at −30° C.
4) Total RNA was extracted from each of the cells treated with the medicaments by using an RNA extraction reagent (RNeasy™, QIAGEN N.V.) according to the manufacturer's protocol. cDNA was prepared from the total RNA by using a reverse transcriptase reagent (Prime Script™, Takara) according to the manufacturer's protocol. […]

Regarding `CCc1ccc(OCc2ccccc2C(=O)Nc2ccc3nc(C)cc(N)c3c2)cc1.Cl` [Compound 1, N-(4-Amino-2-methyl-6-quinolyl)-2-[(4-ethylphenoxy)methyl]benzamide hydrochloride], in the test with GPR142 (GPR142-overexpressing HEK293T cells, 0.1 nM to 1000 nM, 20 minutes), the cAMP production result is reported as “decreased cAMP production via GPR142 dose-dependently”. Moreover, the “FLG mRNA expression (GAPDH ratio)” value with FLG mRNA is on record as “increased FLG mRNA expression”.

Consider `O=C(CCCCCN1C(=O)c2cccc3cccc(c23)C1=O)NO` [Comparative Compound 2, 6-(1,3-Dioxo-1H,3H-benzo[de]isoquinolin-2-yl)hexanoic acid hydroxyamide, reference compound], for which the “cAMP production-suppressing action, in words” value in the test on GPR142 (GPR142-overexpressing HEK293T cells, 1,000 nM) was “no cAMP production-suppressing action was observed”. Also, the “FLG mRNA expression (GAPDH ratio)” value in the test on FLG mRNA is “increased FLG mRNA expression”.

For `CC[C@H](C)[C@H]1O[C@]2(CC[C@@H]1C)C[C@@H]1C[C@@H](C/C=C(\C)[C@@H](O[C@H]3C[C@H](OC)[C@@H](O[C@H]4C[C@H](OC)[C@@H](O)[C@H](C)O4)[C@H](C)O3)[C@@H](C)/C=C/C=C3\CO[C@@H]4[C@H](O)C(C)=C[C@@H](C(=O)O1)[C@]34O)O2` [Compound 2, Ivermectin, reference compound], in the test on GPR142 (GPR142-overexpressing HEK293T cells, 1,000 nM, 20 minutes), the “decrease of cAMP production” value is recorded as “about 20%”.
